# Assays:
# [1] = test system: C. suis merozoites; assay: Merozoite replication (growth) inhibition in infected IPEC-1 cultures, free merozoites counted 9 dpi; assay type: cell-based, Cystoisospora suis; details: 400 nM once at 2 dpi; vs DMSO-only and no-treatment controls
# Method: The laboratory strain C. suis Wien I ([Joachim and Mundt, 2011]), was maintained by passage in suckling piglets every 3–6 months and infectivity in vivo was assessed regularly at the Institute of Parasitology, University of Veterinary Medicine, Vienna. Oocysts were purified from collected feces, brought to sporulation and stored as described elsewhere ([Worliczek et al., 2013]). For in vitro studies, sporozoites were excysted ([Worliczek et al., 2013]), enumerated with a hemocytometer and used immediately for infection of semi-permanent intestinal porcine epithelial cells (IPEC-1). For in vivo studies, sporulated oocysts were washed with tap water and enumerated prior to infection of piglets.
# IPEC-1 cells were maintained in culture medium at 37 °C and 5% CO2 (DHEM/HAM12 supplemented with 5% fetal calf serum and penicillin/streptomycin; Gibco via Thermo Fisher, Vienna, Austria). Cells (4 × 10^4) were used to seed 24-well plates and grown to confluence. All BKI compounds were stored as 20 mM stock solutions in 100% dimethyl sulfoxide (DMSO) at −20 °C. Cell viability in the presence of DMSO and BKIs was determined by colorimetric cell proliferation (WST-1) assays ([Shrestha et al., 2019]). In addition IPEC-1 cells were infected with serial dilutions of C. suis sporozoites, obtained after excystation to evaluate the growth curves of merozoites during 5–9 days of cultivation. To determine the effect of BKI 1369 on parasite replication, sporozoites (5 × 10^2) were added to each well one day after seeding of host cells and incubated with different concentrations of BKI 1369 at 40 °C for various time periods or a DMSO control, in triplicate.
# In order to test whether BKI 1369 affects initial host cell invasion by C. suis, freshly excysted sporozoites were pre-incubated with BKI 1369 or DMSO for 6 h at 37 °C. Subsequently, sporozoites were washed with medium and used for infection of cell monolayers (5 × 10^2/well), in triplicate. Readout for both growth (merozoite replication) and invasion-inhibition experiments was microscopical evaluation by counting free merozoites 9 days post-infection (dpi) from culture supernatants. Supernatants were collected and free merozoites were counted in pooled samples at 9 dpi from quadruplicate wells in C-Chip disposable hemocytometers (NanoEnTek/Roth Lactan, Graz, Austria). All assays included DMSO and no-treatment controls in quadruplicate.
# Statistical calculations for in vivo trials were performed with RStudio version 1.1.453 (RStudio Team, 2018), descriptive statistics with Microsoft Excel 2010 (Microsoft Inc., Vienna, Austria) and GraphPad Prism version 5.04 for Windows (GraphPad Software, San Diego, California USA). Differences in clinical and parasitological parameters between groups were analyzed with ANOVA in the case of normal distribution and variance homogeneity of the data, or a Kruskal-Wallis rank sum test if this was not the case. In the event of significance for the omnibus tests, parametric or non-parametric post-hoc tests for multiple comparisons were performed (according to Tukey and Conover, respectively), with P-value adjustment after Bonferroni. In vitro assays were evaluated by t-tests with significance reported at P < 0.05. For testing of efficacy in vitro, the percentage of growth/invasion inhibition was calculated as follows: % inhibition = (1−No. of merozoites counted at 9 dpi in BKI 1369 treated culture /No. of merozoites counted at 9 dpi in DMSO-only treated culture)x100
# [2] = Fecal drug kinetics: BKI concentrations in pooled feces by LC-MS/MS; assay type: in vivo, piglets
# Method: Additionally, to determine exposure to BKI 1369 and its metabolites, BKI 1318 and BKI 1817, pooled fecal samples per group were collected before treatment (−24 h), 2, 24 and 48 h after treatment and at the end of the study (SD 29; experiment I). Approximately 1 g of feces was soaked overnight in 3 ml phosphate buffered saline (PBS, pH 7.4). The following day, 12 ml of acetonitrile containing 100 μM propanolol as an internal standard was added and the mixture was thoroughly vortexed and centrifuged at 1000×g for 30 min. Clear supernatant was then transferred to Eppendorf tubes and concentrated in a miVac® Duo Concentrator (SP Scientific, Pennsylvania, USA) at 35 °C. Control/blank samples spiked with known amounts of target analyte were processed in tandem to provide a standard curve. The concentrated samples were shipped to the University of Washington and were stored at −20 °C until analysis by liquid chromatography-tandem mass spectrometry (LC-MS/MS) to determine fecal pharmacokinetics. All LC-MS/MS analyses were carried out on a Waters Acquity UPLC coupled with a Xevo TQS Micro and analyzed using MassLynx software (Waters Corporation, Milford, MA, USA). Extraction and LC-MS/MS conditions are described in detail in the Supplementary File S1.
# Tissue and feces from vehicle control treated piglets were used as blanks or standards. Calibration curves for BKI 1369, BKI 1318, and BKI 1817 were prepared by adding 2 μL BKI in dimethylsulfoxide (DMSO) to 18 μL tissue or feces controls to generate nominal concentrations of 0.004, 0.008, 0.02, 0.04, 0.08, 0.2, 0.4, 0.8, 2, 5, 10, and 20 μM. Calibration curves were generated separately for each tissue type and feces.
# 5 μL of tissue homogenate curves and samples were added to tubes that contained 95 μL of 80:20 acetonitrile: water. As an internal standard, propranolol was added to each sample to a final concentration of 20 nM. Samples were dried to completion using a miVac Duo Concentrator (SP Scientific, Pennsylvania, USA) at 35 °C. Sample processing for feces was similar but utilized a slightly different process to concentrate the sample as explained in the methods. Dried Samples were sealed and shipped to the University of Washington for LC-MS/MS analysis.
structure (smiles),measurement,setting,value
CN1CCC(Cn2nc(-c3ccc4nc(O)ccc4c3)c3c(N)ncnc32)CC1 [BKI 1817],Decrease of total merozoite counts,[1],69.6%
same,Concentration in pooled fecal samples,"[2]; Group A (20 mg BKI 1369/kg BW; 0 dpi), SD 2, −24 h (before treatment)",0.0 µM
same,Concentration in pooled fecal samples,"[2]; Group A (20 mg BKI 1369/kg BW; 0 dpi), SD 3, 2 h post first-dose",0.0 µM
same,Concentration in pooled fecal samples,"[2]; Group A (20 mg BKI 1369/kg BW; 0 dpi), SD 4, 24 h post first-dose",54.0 µM
same,Concentration in pooled fecal samples,"[2]; Group A (20 mg BKI 1369/kg BW; 0 dpi), SD 5, 48 h post first-dose",60.8 µM
same,Concentration in pooled fecal samples,"[2]; Group A (20 mg BKI 1369/kg BW; 0 dpi), SD 29, 624 h post first-dose",0.0 µM
same,Cmax,"[2]; Group A: single treatment 20 mg BKI 1369/kg on SD 3, pooled feces",60.8 µM
same,Fecal Tmax,"[2]; Group A: single treatment 20 mg BKI 1369/kg on SD 3, pooled feces, post dose",48 h
same,Concentration in pooled fecal samples,"[2]; Group B (20 mg BKI 1369/kg BW; 2 dpi), SD 4, −24 h (before treatment)",0.0 µM
same,Concentration in pooled fecal samples,"[2]; Group B (20 mg BKI 1369/kg BW; 2 dpi), SD 5, 2 h post first-dose",0.0 µM
same,Concentration in pooled fecal samples,"[2]; Group B (20 mg BKI 1369/kg BW; 2 dpi), SD 6, 24 h post first-dose",0.8 µM
same,Concentration in pooled fecal samples,"[2]; Group B (20 mg BKI 1369/kg BW; 2 dpi), SD 7, 48 h post first-dose",53.5 µM
same,Concentration in pooled fecal samples,"[2]; Group B (20 mg BKI 1369/kg BW; 2 dpi), SD 29, 576 h post first-dose",0.0 µM
same,Fecal Tmax,"[2]; Group B: single treatment 20 mg BKI 1369/kg on SD 5, pooled feces, post-dose",48 h
same,Concentration in pooled fecal samples,"[2]; Group C (20 mg BKI 1369/kg BW; 2 and 4 dpi), SD 4, −24 h (before treatment)",0.0 µM
same,Concentration in pooled fecal samples,"[2]; Group C (20 mg BKI 1369/kg BW; 2 and 4 dpi), SD 5, 2 h post first-dose",0.0 µM
same,Concentration in pooled fecal samples,"[2]; Group C (20 mg BKI 1369/kg BW; 2 and 4 dpi), SD 6, 24 h post first-dose",130.0 µM
same,Concentration in pooled fecal samples,"[2]; Group C (20 mg BKI 1369/kg BW; 2 and 4 dpi), SD 7, 48/2 h post 2nd dose",280.8 µM
same,Concentration in pooled fecal samples,"[2]; Group C (20 mg BKI 1369/kg BW; 2 and 4 dpi), SD 8, 72/24 h post 2nd dose",331.6 µM
same,Concentration in pooled fecal samples,"[2]; Group C (20 mg BKI 1369/kg BW; 2 and 4 dpi), SD 9, 96/48 h post 2nd dose",537.0 µM
same,Cmax,"[2]; Group C: 20 mg BKI 1369/kg on SD 5 and SD 7, pooled feces",537 µM
same,Fecal Tmax,"[2]; Group C: 20 mg BKI 1369/kg on SD 5 and SD 7, pooled feces, post first-dose",96 h
same,Excretion via the feces (in words),"[2]; after oral BKI 1369, piglets",major metabolite excreted in the feces

# Reference: paper PMC7442133, “Reduced treatment frequencies with bumped kinase inhibitor 1369 are effective against porcine cystoisosporosis” (International Journal for Parasitology: Drugs and Drug …, 2020)
